From EP4772520A1, “NOVEL PRODRUG-TYPE ANTICANCER AGENT TARGETING CANCER-SPECIFIC ENZYME ACTIVITY” (priority 2023, dated 2025)

How the values were obtained:
[1] = Evaluation of locomotion after administration of drug; format: in vivo; details: intravenous administration of 40 mg/kg, n = 4, 15 minutes from 1 minute after administration
Procedure: The momentum after drug administration was compared (n = 4).
Fig. 22 illustrates results of locomotion evaluation after drug administration. a of Fig. 22 illustrates the head movement distance for 15 minutes from 1 minute after administration in each group. The drug is administered intravenously at 40 mg/kg (n = 4). b of Fig. 22 illustrates an example of a movement trajectory for 15 minutes from 1 minute after administration in each group. c of Fig. 22 illustrates an example of a movement distance for each time from 1 minute after administration in each group.

[2] = system: luciferase-expressing A549 cells; assay: Therapeutic experiment 1 in A549 lung cancer orthotopic transplantation model; format: in vivo, mice; details: 40 mg/kg i.v., 3 times a week; for tumor suppression effect (luciferin/luciferase chemiluminescence): vs Vehicle
Procedure: The administration form was intravenous administration (i.v.). The dose was 40 mg/kg, and administration was performed 3 times a week for 4 times. The tumor burden was determined by evaluating the luciferin/luciferase chemiluminescence value. The endpoint was the time point of significant body weight loss (20% loss).
A specific procedure of the therapeutic experiment is shown below. • (1) Model mice were created by the following operation using BALB/cAJcl-nu/nu (7 weeks old). The skin of the chest was incised, and the skin was subcutaneously detached, then luciferase-expressing A549 cells 2 × 10^7 cells/mL (50 µL, 5% Matrigel) was injected from the intercostal pleura to the left lung. After injection, the skin was sutured. • (2) After 17 days, the formation of cancer was confirmed by luciferin/luciferase chemiluminescence, and the intravenous administration of the drug was started. The drug was prepared by dissolving a 200 mM of DMSO stock in PBS, and administered in a total amount of 100 µL. 3 mg (200 µL) of luciferin was administered by intraperitoneal administration, and anesthetized with isoflurane. Thereafter, the chemiluminescent value at 20 minutes after administration was measured by an in vivo imaging device. • (3) On the day of evaluation, the tumor burden was evaluated by the body weight and the luciferin/luciferase chemiluminescence.

[3] = system: mouse Lewis lung cancer-derived cell line LLC (3LL); assay: Combination experiment with anti-PD-1 antibody, LLC subcutaneous tumor model; format: in vivo, mice; details: anti-PD-1 antibody 100 µg i.p. twice a week, SN38-βGlcNAc 150 mg/kg i.v. three times a week
Procedure: The effect of combination use of an anti-PD-1 antibody and SN38-βGlcNAc used as a main cancer immunotherapy in current lung cancer treatment was examined. Subcutaneous tumor model mice of a mouse Lewis lung cancer-derived cell line LLC (3LL) reported to have sensitivity to the anti-PD-1 antibody were evaluated, and the Vehicle (DMSO) group was n = 8, the anti-PD-1 antibody administration group was n = 5, the SN38-βGlcNAc administration group was n = 6, and the combination use group of the anti-PD-1 antibody and the SN38-βGlcNAc was n = 5. As an antibody, anti-mouse PD-1 antibody Clone RMP1-14 (Leinco Technologies, Inc.) was used. […]
A specific procedure of the therapeutic experiment is shown below. • (1) Hair on the dorsal side from the upper part of the right foot of C57BL/6JJcl (7 weeks old, female) was shaved with a hair clipper, and then LLC cells 2.0 ×10^6 cells (50 µL) were subcutaneously injected. • (2) The drug administration was started to the individual whose tumor volume reached about 50 to 170 mm^3 after 6 days. […] The anti-PD-1 antibody (Clone RMP1-14) was administered by intraperitoneal administration of 100 µg dissolved in 100 µL of PBS. • (3) The body weight was measured on the day of evaluation, and the tumor volume was evaluated with a vernier caliper. • (4) The time point when the tumor volume reached 2000 to 3000 mm^3 was taken as the endpoint.

[4] = system: lung adenocarcinoma cell A549; assay: Cytotoxicity test by MTT assay method (A549); format: cell-based; details: for IC50: Homo sapiens, A549, 72 h, read-out: IC50 value

Structure (SMILES): CCc1c2c(nc3ccc(O[C@@H]4O[C@H](CO)[C@@H](O)[C@H](O)[C@H]4NC(C)=O)cc13)-c1cc3c(c(=O)n1C2)COC(=O)[C@]3(O)CC [SN38-βGlcNAc]
- locomotion after drug administration [1]: these decreases in the locomotion were hardly observed
- body weight [2]: the slight body weight loss was found, but it was not remarkable as in CPT-11
- tumor suppression effect (luciferin/luciferase chemiluminescence) [2]: tended to suppress tumor growth as in the CPT-11 administration group
- body weight [3]: no body weight loss was found in any group
- tumor proliferation suppression (tumor volume) ([3]; vs Vehicle): showed tumor proliferation suppression
- cytotoxicity in the presence of inhibitor ([4]; A549, inhibitor PUGNAc of β-hexosaminidase): cytotoxicity was significantly reduced
- IC50 [4]: 1.35 µM

Structure (SMILES): CCc1c2c(nc3ccc(O[C@@H]4O[C@H](CO)[C@H](O)[C@H](O)[C@H]4O)cc13)-c1cc3c(c(=O)n1C2)COC(=O)[C@]3(O)CC [SN38-βGal]
- locomotion after drug administration [1]: these decreases in the locomotion were hardly observed
- body weight [2]: the slight body weight loss was found, but it was not remarkable as in CPT-11
- tumor suppression effect (luciferin/luciferase chemiluminescence) [2]: tended to suppress tumor growth as in the CPT-11 administration group
- IC50 [4]: 3.38 µM
